# Reference: patent publication US20100041089A1, “IMPROVED METHOD FOR DETECTING CHEMICAL […]” (priority 2006, published 2010)
# System: yeast genes (expressed mRNA)
# Assay: DNA chip measurement of expressed mRNA of yeast genes after culture with a toxic chemical substance
# Format: cell-based, Saccharomyces cerevisiae S288C
# Outline: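 Two-hour exposure of growing S. cerevisiae S288C (YPD, 25° C) to a sublethal toxicant preceded RNA isolation. Fluorescent cDNA was hybridized to a whole-genome array; a treated-to-untreated signal ratio of two or more was taken as significant.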
compound,measurement,setting,value
"C=CC=O [(14), Acrolein]",The level of expressed mRNA in the presence of chemical substance/The level of expressed mRNA in the absence of chemical substance,"yeast gene YMR316W, cultured two hours with substance",1.3
same,The level of expressed mRNA in the presence of chemical substance/The level of expressed mRNA in the absence of chemical substance,yeast gene YNL036W,5.1
same,The level of expressed mRNA in the presence of chemical substance/The level of expressed mRNA in the absence of chemical substance,"yeast gene YNL044W, cultured two hours with substance",1.2
same,The level of expressed mRNA in the presence of chemical substance/The level of expressed mRNA in the absence of chemical substance,"yeast gene YNL074C, cultured two hours with substance",0.6
same,The level of expressed mRNA in the presence of chemical substance/The level of expressed mRNA in the absence of chemical substance,"yeast gene YNL092W, cultured two hours with substance",1.2
same,The level of expressed mRNA in the presence of chemical substance/The level of expressed mRNA in the absence of chemical substance,"yeast gene YNL115C, cultured two hours with substance",1.0
same,The level of expressed mRNA in the presence of chemical substance/The level of expressed mRNA in the absence of chemical substance,"yeast gene YNL155W, cultured two hours with substance",2.1
same,The level of expressed mRNA in the presence of chemical substance/The level of expressed mRNA in the absence of chemical substance,"yeast gene YNL156C, cultured two hours with substance",1.4
same,The level of expressed mRNA in the presence of chemical substance/The level of expressed mRNA in the absence of chemical substance,"yeast gene YNL190W, cultured two hours with substance",0.6
same,The level of expressed mRNA in the presence of chemical substance/The level of expressed mRNA in the absence of chemical substance,"yeast gene YNL195C, cultured two hours with the chemical substance",1.5
same,The level of expressed mRNA in the presence of chemical substance/The level of expressed mRNA in the absence of chemical substance,"yeast gene YNL208W, cultured two hours with substance",1.0
same,The level of expressed mRNA in the presence of chemical substance/The level of expressed mRNA in the absence of chemical substance,"yeast gene YNL234W, cultured two hours with substance",1.5
same,The level of expressed mRNA in the presence of chemical substance/The level of expressed mRNA in the absence of chemical substance,"yeast gene YNL281W, cultured two hours with substance",1.2
same,The level of expressed mRNA in the presence of chemical substance/The level of expressed mRNA in the absence of chemical substance,"yeast gene YNL300W, cultured two hours with substance",0.8
same,The level of expressed mRNA in the presence of chemical substance/The level of expressed mRNA in the absence of chemical substance,"yeast gene YNL305C, cultured two hours with substance",1.3
same,The level of expressed mRNA in the presence of chemical substance/The level of expressed mRNA in the absence of chemical substance,yeast gene YNL335W,4.6
same,The level of expressed mRNA in the presence of chemical substance/The level of expressed mRNA in the absence of chemical substance,"yeast gene YNR064C, cultured two hours with substance",0.8
same,The level of expressed mRNA in the presence of chemical substance/The level of expressed mRNA in the absence of chemical substance,"yeast gene YNR068C, cultured two hours with substance",1.8
same,The level of expressed mRNA in the presence of chemical substance/The level of expressed mRNA in the absence of chemical substance,"yeast gene YOL032W, cultured two hours with substance",1.3
same,The level of expressed mRNA in the presence of chemical substance/The level of expressed mRNA in the absence of chemical substance,"yeast gene YOL036W, cultured two hours with substance",1.0
same,The level of expressed mRNA in the presence of chemical substance/The level of expressed mRNA in the absence of chemical substance,"yeast gene YOL047C, cultured two hours with substance",1.2
same,The level of expressed mRNA in the presence of chemical substance/The level of expressed mRNA in the absence of chemical substance,"yeast gene YOL071W, cultured two hours with substance",2.5
same,The level of expressed mRNA in the presence of chemical substance/The level of expressed mRNA in the absence of chemical substance,"yeast gene YOL082W, cultured two hours with substance",1.4
same,The level of expressed mRNA in the presence of chemical substance/The level of expressed mRNA in the absence of chemical substance,"yeast gene YOL083W, cultured two hours with substance",1.4
same,The level of expressed mRNA in the presence of chemical substance/The level of expressed mRNA in the absence of chemical substance,"yeast gene YOL117W, cultured two hours with substance",1.7
same,The level of expressed mRNA in the presence of chemical substance/The level of expressed mRNA in the absence of chemical substance,"yeast gene YOL131W, cultured two hours with substance",2.3
same,The level of expressed mRNA in the presence of chemical substance/The level of expressed mRNA in the absence of chemical substance,"yeast gene YOL150C, cultured two hours with substance",5.7
same,The level of expressed mRNA in the presence of chemical substance/The level of expressed mRNA in the absence of chemical substance,"yeast gene YOL162W, cultured two hours with substance",1.4
same,The level of expressed mRNA in the presence of chemical substance/The level of expressed mRNA in the absence of chemical substance,"yeast gene YOR019W, cultured two hours with substance",1.4
same,The level of expressed mRNA in the presence of chemical substance/The level of expressed mRNA in the absence of chemical substance,"yeast gene YOR049C, cultured two hours with substance",1.5
same,The level of expressed mRNA in the presence of chemical substance/The level of expressed mRNA in the absence of chemical substance,"yeast gene YOR197W, cultured two hours with substance",0.7
same,The level of expressed mRNA in the presence of chemical substance/The level of expressed mRNA in the absence of chemical substance,"yeast gene YOR248W, cultured two hours with substance",0.5
same,The level of expressed mRNA in the presence of chemical substance/The level of expressed mRNA in the absence of chemical substance,"yeast gene YOR338W, cultured two hours with substance",2.5
same,The level of expressed mRNA in the presence of chemical substance/The level of expressed mRNA in the absence of chemical substance,"yeast gene YPL052W, cultured two hours with substance",3.2
same,The level of expressed mRNA in the presence of chemical substance/The level of expressed mRNA in the absence of chemical substance,"yeast gene YPL087W, cultured two hours with substance",1.2
same,The level of expressed mRNA in the presence of chemical substance/The level of expressed mRNA in the absence of chemical substance,"yeast gene YPL171C, cultured for two hours with substance",9.3
same,The level of expressed mRNA in the presence of chemical substance/The level of expressed mRNA in the absence of chemical substance,"yeast gene YPL196W, cultured two hours with substance",1.6
same,The level of expressed mRNA in the presence of chemical substance/The level of expressed mRNA in the absence of chemical substance,"yeast gene YPL206C, cultured two hours with substance",1.1
same,The level of expressed mRNA in the presence of chemical substance/The level of expressed mRNA in the absence of chemical substance,"yeast gene YPL222W, cultured two hours with substance",1.1
same,The level of expressed mRNA in the presence of chemical substance/The level of expressed mRNA in the absence of chemical substance,"yeast gene YPR023C, cultured two hours with substance",0.9
same,The level of expressed mRNA in the presence of chemical substance/The level of expressed mRNA in the absence of chemical substance,"yeast gene YPR079W, cultured two hours with substance",1.3
same,The level of expressed mRNA in the presence of chemical substance/The level of expressed mRNA in the absence of chemical substance,"yeast gene YPR151C, cultured two hours with substance",1.4
